Legend:
[1] = tested on: Adenovirus-specific T cells producing IFNγ; assay: IFNγ-ELISpot, vector-specific T cell response (Ad-specific peptide FAL) in HBV-persistent mice; format: in vivo, C57BL/6J mice; settings: splenocytes, day 76 post AAV2/8-HBV; sildenafil 20 mg/kg/day D31-59 or D48-76; AdTG18201 2×10^9 vp sc D36, 43, 50
Method: The capacity of splenocytes to produce IFNγ after different in vitro stimulations was measured by an IFNγ-ELISpot assay at day 76 post AAV2/8-HBV injection. Vector-specific T cell responses were assessed using the Ad-specific peptide FAL. Results are shown as the number of spots per 10^6 splenocytes. Each dot represents an individual mouse and thick line represents the mean value for each group (+/−SEM). The horizontal gray line represents the technical cutoff value (50 spots/10^6 cells) above which values are considered as positive T cell responses and which was defined as described in the Material and Methods. For groups with a positive T cell response, incidence of mice per group is indicated on the graph.
(§1) The HBV persistent mice used in the study were described by Dion et al. (2013, J Virol, 87(10):5554-63). […] This allows the analysis of HBV-specific viral parameters (HBsAg, HBeAg, HBcAg and viremia) as well as immunological read-outs (ICS, ELISpot or humoral immune responses). […]
IFNg-producing T cells were quantified by cytokine-specific ELISpot (enzyme linked immunospot) assay as previously described (Himoudi et al., 2002, J. Virol. 76: 12735). The number of spots (corresponding to the IFNg-producing T cells) in negative control wells were subtracted from the number of spots detected in experimental wells containing HBV peptides. […]

[2] = tested on: melanoma; settings: melanoma bearing mice; cited from earlier work
[3] = tested on: HBsAg (AAV2/8-HBV); assay: Serum HBsAg level by ELISA in HBV-persistent mice; format: in vivo, C57BL/6J mice; settings: monotherapy; sildenafil 5, 20 or 80 mg/kg/day D31-59; AdTG18201 D36, 43, 50; up to day 104
Method: Graph A illustrates the median level of HBsAg determined in the serum of groups of 10 mice (groups a to h) treated with sildenafil at 5 mg/kg/day (group b), at 20 mg/kg/day (group c), or at 80 mg/kg/day (group d) alone, or with AdTG18201 (group e) alone or with a combination of AdTG18201 and sildenafil (at 5, 20, or 80 mg/kg/day, groups f, g and h, respectively). The control group a is untreated. The Y-axis indicates the median HBsAg level (ng/mL) for each group and the X-axis the time (number of days post-AAV2/8-HBV injection). Graph B illustrates the median level of HBV DNA determined in the serum of the same groups of mice by PCR. The Y-axis indicates the median HBV DNA level (copies/mL) for each group of animals and the X-axis the time (number of days post-AAV2/8-HBV injection). […]
as §1
HBsAg levels in mouse serum were assessed using a commercial ELISA kit (Monolisa HBsAg Ultra, Bio-Rad, France) according to the manufacturer's protocol, except that a standard curve was established, to render the test quantitative. […]

CCCc1nn(C)c2c(=O)nc(-c3cc(S(=O)(=O)N4CCN(C)CC4)ccc3OCC)[nH]c12 [sildenafil, 1-[[3-(4,7-dihydro-1-methyl-7-oxo-3-propyl-1H-pyrazolo[4,3-d]pyrimidin-5-yl)-4-ethoxyphenyl]sulfonyl]-4-methylpiperazine]
IFNg-response to the Ad-specific peptide FAL [1]: negative
concentration of inflammatory mediators (IL-1β, IL-6, VEGF, GM-CSF, MCP-1) in melanoma lesions [2]: significantly diminished
tumor progression [2]: delay tumor progression
HBsAg median level, course [3]: no significant HBsAg decrease
